Reference: patent US11351399B2, “Combined local delivery of therapeutic agents using interventional devices and radiation” (The University of North Carolina At Chapel Hill, priority 2014, dated 2022)
“And” between values parts separate entries of the source, which are not always exact repeats. Equal entries are not always repeated. Where two headings read alike, the source gives them in different places.

Key:
[1] = biodistribution/PK of device and/or IV cisplatin in orthotopic SUM149 cell xenograft model; format: in vivo, mice
Experimental: Device delivery of cisplatin was evaluated using an orthotopic SUM149 cell xenograft model of breast cancer. In addition to studying iontophoretic delivery as compared to IV delivery of the cisplatin, concurrent device and IV delivery was added as an arm of the study based upon the low systemic exposure of cisplatin. In the study, a single treatment was administered after adhesion of the device to the skin above the tumor.

[2] = system: SUM149 cell xenograft orthotopic breast cancer model; format: in vivo, mice; conditions: for median lifespan: control median 49 days; for tumor growth inhibition: weekly, four doses
Experimental: (§1) Iontophoretic delivery of cisplatin in was tested in both SUM149 cell xenograft and T11 syngeneic orthotopic breast cancer models. For both models, the efficacies of device cisplatin, IV cisplatin, device+IV cisplatin, device saline, and IV saline were compared.
(§2) For the SUM149 xenograft model, once the tumors reached ˜50 mm^3, the mice were treated with device cisplatin, IV cisplatin (5 mg/kg), device+IV cisplatin (5 mg/kg), device saline, or IV saline every week for four total doses, as shown in FIGS. 35A and 35B. […] For the T11 model, mice received two doses of device cisplatin, IV cisplatin (5 mg/kg), device+IV cisplatin (5 mg/kg), device saline, or IV saline every week for two total doses beginning five days after inoculation (˜20 mm^3), as shown in FIGS. 35C and 35D. The number of treatments varied between tumor models because of the differences in tolerability of treatments.

[3] = system: T11 syngeneic orthotopic breast cancer model; assay: tumor treatment efficacy of cisplatin, T11 syngeneic model; format: in vivo, mice; conditions: for median lifespan: control median 10 days; for tumor growth inhibition: two doses
Experimental: as §1, §2

[4] = system: T11 syngeneic orthotopic breast cancer models; assay: combined cisplatin and radiation efficacy, T11 syngeneic model; format: in vivo, mice; conditions: single dose
Experimental: Using T11 syngeneic orthotopic breast cancer models, radiotherapy was tested as an alternative and/or additional treatment method to device and IV cisplatin to compare the therapeutic effects of the various treatments. Mice received a single dose of radiation (10 Gy), device cisplatin, device cisplatin+radiation (10 Gy), IV cisplatin (5 mg/kg), IV cisplatin+radiation (10 Gy), device+IV cisplatin (5 mg/kg), and device cisplatin+IV cisplatin (5 mg/kg)+radiation (10 Gy) five days after inoculation (˜20 mm^3).

[5] = ex vivo cisplatin transport into human skin, modified Franz diffusion cell; conditions: 1 mA for 25 minutes, ~1 mm thick skin, ICP-MS
Experimental: Ex vivo drug transport studies were also conducted by transporting cisplatin into ˜1 mm thick human skin and were evaluated using a modified Franz diffusion cell with the test drug transport device directly above the skin instead of a donor chamber. During the testing, 1 or 0 mA of current was applied for 25 minutes, and the skin and solution were snap frozen, processed, and analyzed by inductively coupled plasma-mass spectrometry (ICP-MS).

[6] = ex vivo drug transport in pancreatic cancer PDX tumors; format: in vitro ADME; conditions: 2 mA for 10 minutes, device sutured onto ex vivo PDX tumor, UV-HPLC
Experimental: Ex vivo drug transport studies were conducted using pancreatic cancer patient-derived xenografts (PDXs). Test drug transport devices were sutured onto the ex vivo PDX tumors and a counter electrode was placed on the contralateral side of the tumor. 2 or 0 mA of current was applied for 10 minutes and the tumors were subsequently snap frozen, processed, and analyzed by UV-high performance liquid chromatography (HPLC).

in vivo = conditions: mouse
From the text: Orthotopic PDX models of pancreatic cancer were used to characterize iontophoretic delivery of gemcitabine with respect to pharmacokinetics (PK).
In the present example, IV delivery of gemcitabine was compared to local iontophoretic delivery of gemcitabine.

[7] = PK study of device versus IV gemcitabine in non-tumor bearing dogs; format: in vivo
Experimental: Since there was no readily available large animal model for pancreatic cancer, a representative non-tumor bearing large animal model (Dogs) for humans was used. A laparotomy was performed and iontophoretic devices (shown in FIG. 41) were sutured directly onto the pancreas. A constant current of 10 mA was applied for 60 minutes using either 40 or 10 mg/mL gemcitabine (n=5, per group). […] For the IV treatment arm (n=4, per group), clinical protocol was followed for gemcitabine administration, which was an infusion of a 1 g/m^2 dose for thirty minutes, and the animal was euthanized 60 minutes after the start of the infusion. The plasma was sampled at 15 minute increments before, during, and after therapy. After therapy, the tissues were removed, flash-frozen, and analyzed by UV-HPLC.

[8] = system: orthotopic PDX model of pancreatic cancer; conditions: for mice with tumor regression: twice a week up to 7 weeks
Experimental: Iontophoretic devices were surgically implanted into orthotopic PDX tumors when their size reached ˜200 mm^3, as determined by high resolution 3D ultrasound. Mice were treated twice a week for up to 7 weeks with device gemcitabine (20 mg/mL), device saline (0.9% NaCl), IV Gemcitabine (80 mg/kg), or IV saline. Tumor volumes were measured by volume displacement after completion of the scheduled treatment due to the interference of implanted devices with ultrasound imaging.

[9] = device+IV cisplatin (5 mg/kg) + radiation (10 Gy)

SMILES: [NH2][Pt]([NH2])([Cl])[Cl] [cisplatin]
- Platinum Plasma Exposure (AUC) ([1]; Device + IV (5 mg/kg) Delivery): 10.65 µg·h/mL
- Platinum Plasma Exposure (AUC) ([1]; Device Delivery, single treatment): 1.99 µg·h/mL
- Platinum Plasma Exposure (AUC) ([1]; IV (5 mg/kg) Delivery): 9.91 µg·h/mL
- median lifespan ([2]; IV cisplatin (5 mg/kg)): 68 days
- tumor γH2AX staining, device cisplatin versus IV cisplatin ([2]; device cisplatin, tumors post treatment): almost equivalent γH2AX staining
- tumor growth inhibition ([2]; device cisplatin, similar to IV cisplatin until day 42): significant tumor growth inhibition
- median lifespan ([2]; device cisplatin): 60 days
- tumor growth inhibition ([2]; device+IV cisplatin (5 mg/kg)): significant tumor growth inhibition
- median lifespan ([2]; device+IV cisplatin (5 mg/kg)): > 100 days
- tumor γH2AX staining ([2]; device+IV cisplatin, tumors post treatment): greater γH2AX staining
- skin of the mice after device treatment ([2]; mouse, in vivo): no scarring or deformation
- tolerability by kidney γH2AX staining compared to IV cisplatin and device+IV cisplatin ([2]; mouse, in vivo): better tolerated
- median lifespan ([3]; IV cisplatin (5 mg/kg)): 22 days
- tumor growth inhibition ([3]; device cisplatin, similar to IV cisplatin until day 9): significant tumor growth inhibition
- median lifespan ([3]; device cisplatin): 20 days
- tumor growth inhibition ([3]; device+IV cisplatin (5 mg/kg)): significant tumor growth inhibition
- median lifespan ([3]; device+IV cisplatin (5 mg/kg)): 32 days
- survival on addition of radiation ([4]; IV cisplatin (5 mg/kg) + radiation (10 Gy)): significantly improved survival
- survival on addition of radiation ([4]; device cisplatin + radiation (10 Gy)): significantly improved survival
- survival on addition of radiation [4, 9]: significantly improved survival
- tumor growth inhibition and survival versus other groups [4, 9]: outperformed all other treatment groups
- fold increase in platinum transported into the human skin versus passive diffusion (0 mA) [5]: 11.4 fold

SMILES: Nc1ccn([C@@H]2O[C@H](CO)[C@@H](O)C2(F)F)c(=O)n1 [gemcitabine]
- fold increase in drug transport versus passive diffusion control (0 mA) [6]: 9.1 fold
- gemcitabine in plasma (in vivo): no detectable gemcitabine
- gemcitabine tumor AUC (in vivo): 348.07 µg·h/mL
- distance away from the devices at which gemcitabine was detected (in vivo; 0 h): 4.7 mm
- distance away from the devices at which gemcitabine was detected (in vivo; 3 h): 3 mm
- distance away from the devices at which gemcitabine was detected (in vivo; 6 h): 3 mm
- AUC (in vivo; iv, 80 mg/kg): 65200 ng·h/mL
- gemcitabine tumor AUC (in vivo; iv, 80 mg/kg): 30.78 µg·h/mL
- gemcitabine in plasma ([7]; IV infusion 1 g/m^2 for thirty minutes): detected in the plasma of all dogs
- distance of gemcitabine transport away from the electrode ([7]; device, 10 mg/mL): 6.3 mm
- fold increase in concentration of gemcitabine in the normal canine pancreas compared to IV administration ([7]; device, 10 mg/mL): 2.0 fold
- drug in plasma ([7]; device, 10 mg/mL, 10 mA for 60 minutes): no drug detected
- distance of gemcitabine transport away from the electrode ([7]; device, 40 mg/mL): 9.6 mm
- fold increase in concentration of gemcitabine in the normal canine pancreas compared to IV administration ([7]; device, 40 mg/mL): 7.1 fold
- dogs with detectable levels of gemcitabine in plasma ([7]; device, 40 mg/mL, 10 mA for 60 minutes): 2 out of 5
- fold lower plasma gemcitabine levels than the IV treatment ([7]; device, 40 mg/mL, dogs with detectable levels): at least 25 fold
- mean log2-fold change in tumor volume ([8]; IV gemcitabine (80 mg/kg)): 1.1
- mice with tumor regression ([8]; IV gemcitabine (80 mg/kg)): 0/7
- Ki-67 staining of tumors post treatment versus IV gemcitabine and saline arms ([8]; device gemcitabine): decrease in Ki-67 staining
- mean log2-fold change in tumor volume ([8]; device gemcitabine (20 mg/mL)): −0.8
- mice with tumor regression ([8]; device gemcitabine (20 mg/mL), 52-day study): 7 out of 7 and 7/7
- tolerability (body weight gain, alanine transaminase, lipase) compared to IV gemcitabine ([8]; mouse, in vivo): better tolerated
